Results published in publication PMC8252049 (Chemmedchem, 2021).

How the values were obtained:
[1] = molecular target: T1, rat liver TrxR1 (cytosolic thioredoxin reductase) (Rattus norvegicus, UniProt O89049); test: DTNB reduction, absorbance […] nm; format: biochemical
T1 sequence (O89049 1-499): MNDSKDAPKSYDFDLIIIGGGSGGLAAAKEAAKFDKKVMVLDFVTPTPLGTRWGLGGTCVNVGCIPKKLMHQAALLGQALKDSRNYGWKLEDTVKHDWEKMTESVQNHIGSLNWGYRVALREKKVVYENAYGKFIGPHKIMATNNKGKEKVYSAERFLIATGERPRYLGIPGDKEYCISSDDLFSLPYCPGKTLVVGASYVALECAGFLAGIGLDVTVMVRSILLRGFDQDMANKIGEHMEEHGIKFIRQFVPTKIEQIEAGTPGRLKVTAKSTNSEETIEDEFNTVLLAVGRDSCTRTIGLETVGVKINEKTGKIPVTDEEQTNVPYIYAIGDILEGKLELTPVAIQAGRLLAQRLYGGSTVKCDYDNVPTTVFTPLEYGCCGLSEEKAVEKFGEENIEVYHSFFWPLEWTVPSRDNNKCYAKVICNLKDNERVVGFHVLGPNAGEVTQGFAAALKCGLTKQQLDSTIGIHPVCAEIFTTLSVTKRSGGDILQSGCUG

[2] = molecular target: rat liver TrxR2 (mitochondrial thioredoxin reductase) (Rattus norvegicus, UniProt Q9Z0J5); test: DTNB reduction, absorbance […] nm; format: biochemical
Sequence of rat liver TrxR2 (mitochondrial thioredoxin reductase) (Q9Z0J5 37-526): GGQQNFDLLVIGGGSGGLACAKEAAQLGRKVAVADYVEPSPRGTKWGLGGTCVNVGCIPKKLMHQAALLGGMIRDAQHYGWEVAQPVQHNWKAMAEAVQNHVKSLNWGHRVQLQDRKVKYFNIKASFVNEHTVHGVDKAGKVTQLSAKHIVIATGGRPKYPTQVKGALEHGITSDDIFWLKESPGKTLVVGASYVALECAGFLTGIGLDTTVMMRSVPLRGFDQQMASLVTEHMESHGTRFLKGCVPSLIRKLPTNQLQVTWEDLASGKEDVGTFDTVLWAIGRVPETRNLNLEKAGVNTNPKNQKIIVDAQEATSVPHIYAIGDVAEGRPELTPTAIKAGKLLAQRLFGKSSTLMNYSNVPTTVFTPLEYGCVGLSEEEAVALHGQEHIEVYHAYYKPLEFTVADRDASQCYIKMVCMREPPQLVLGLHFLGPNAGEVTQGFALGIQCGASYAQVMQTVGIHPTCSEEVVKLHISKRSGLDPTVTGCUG

Row | IC50 [1] [nM] | IC50 [2] [nM] | Compound
1 | 2.27 | – | trans-[PtBr2(NHBzBu)(PPh3)] [compound 1]
2 | 2.59 | – | trans-[PtBr2(NHBz2)(PPh3)] [compound 2]
3 | 22.5 | 405 | [NH2][Pt]([NH2])([Cl])[Cl] [cisplatin]
